# Patent US20230272009A1, “Peptide, Peptide Salt, Pharmaceutical Composition and Biological Tissue Calcification Inhibitor” (Hiroshima University, priority 2020, published 2023)
# Square brackets hold non-standard residues; d marks the D form. Ends that are not written are not given here. pS = N[C@@H](COP(=O)(O)O)C(=O)O
# Key:
# [1] = tested on: mouse osteoblast strain MC3T3-E1; assay: Examination of in vitro calcification inhibitory activity (von Kossa staining of matrix calcification); assay type: cell-based; details: relative to Comparative Example 2 set at 100, MC3T3-E1, 3 mM βGP, 24 hours
# Protocol: A mouse osteoblast strain MC3T3-E1 was cultured in a bone differentiation medium (α MEM (Eagle’s minimum essential medium, alpha modification) + 50 µg/mL ascorbic acid, 10% fetal calf serum) to form osteoid-like nodules. In order to induce calcification, 3 mM β-glycerophosphoric acid (hereinafter, “βGP”) was added together with a test substance to the medium. The strain was cultured for 24 hours after the addition of the test substance, and cells were washed with PBS, immobilized with 10% neutral buffered formalin, and then subjected to von Kossa staining. The matrix calcification was evaluated by measurement of calcium spots stained with von Kossa in the extracellular matrices of alkaline phosphatase (ALP)-stained positive cells, which were osteoblastic markers, with a stereoscopic microscope.
# [2] = Evaluation of stability: residual rate in mouse serum by HPLC; assay type: in vitro ADME; details: C57BL/6 mouse serum, 37° C., 7 days or 14 days
# Protocol: (§1) The amount of 1/20 to 1/25 of Comparative Example 2 or Example 5 (each 100 mM) was added to PBS or C57BL/6 mouse serum, and incubated at 37° C. for 7 days or 14 days. In measurement using the serum, 4 M perchloric acid (PCA) of which the amount was equal to the amount of a sample was added, and the resultant was diluted to 2-fold with MQ water and left to stand on ice for 5 minutes. The supernatant obtained by centrifugation for 2 minutes was subjected to HPLC (ODS column and 0.1% TFA/ acetonitrile). The residual rates of the test substances were calculated in a case in which the peak area of a sample adjusted before use was set at 100.
# [3] = tested on: caALK2Q207D mice; assay: Evaluation of drug efficacy in FOP model (µCT of leg region); assay type: in vivo; details: Ad-Cre intramuscular, intraperitoneal 0.03 mg/mouse/day, day 6
# Protocol: Cre recombinase recombinant adenovirus (Ad-Cre, manufactured by Vector Biolabs) was intramuscularly administered (2 × 10^7 pfu) to the crural muscles (triceps muscles) of 7-day-old caALK2Q207D mice (Paul B Yu and the 14 others, “BMP type I receptor inhibition reduces heterotopic ossification” Nat Med, 2008, 14(12), 1363-1369). Next day, Example 5 was intraperitoneally administered (0.03 mg/mouse/day). On day 6, the leg region was immobilized with 4% para-formaldehyde PBS, and µCT images were acquired.
# [4] = tested on: thoracic aorta; assay: Calcification of cultured thoracic aorta rings under high phosphate load (headed 'in vivo calcification inhibitory activity'); assay type: cell-based, C57BL/6 mouse; details: for Calcification of thoracic aorta tissue (alizarin red staining): versus PBS solvent
# Protocol: The thoracic aorta was harvested from a C57BL/6 mouse (10-week-old male), and then cut into ring-shaped portions (2 to 3 mm), which were cultured in 10% FCS DMEM (Dulbecco’s Moodified Eagle’s Medium, high glucose). From the next day, the peptides were added, and the resultants were loaded together with phosphoric acid having a high concentration (sodium phosphate, final concentration of 3 mM), and cultured for 10 days. The tissues immobilized with PFA were stained with alizarin red, and the vessel walls were incised and opened, and observed with a stereoscopic microscope. Moreover, the contents of calcium in liquid extracts obtained by decalcifying the vessels, cultured in a similar manner, with 10% formic acid for 24 hours were measured using a calcium quantification kit (Calcium C-test Wako, manufactured by Wako Pure Chemical Industries, Ltd.).
# [5] = Evaluation of stability: residual rate in PBS by HPLC; assay type: physicochemical; details: 37° C., 7 days or 14 days, HPLC peak area, sample before use set at 100
# Protocol: as §1
# [6] = tested on: Enpp1 mutated mice (C57BL/6J-Enpp1asj/asj); assay: Evaluation of drug efficacy in GACI model (aortic calcification score); assay type: in vivo, mouse; details: high phosphorus diet, continuous intravenous administration for 2 weeks by osmotic pump
# Source text: The biallelic mutation of an Enpp1 gene is observed at 75% of GACI. Thus, the drug efficacy of the peptide was examined using Enpp1 mutated mice. Fertilized eggs from the Enpp1 mutated mice (C57BL/6J-Enpp1^asj/asj) were transplanted into ICR mice, and bred with a high phosphorus diet (AIN-93G-based, 0.4% Ca, 0.85% P, 0.04% Mg) immediately after deliveries. Male Enpp1^asj mice were weaned from the mothers 4 weeks after the births, and fed with a high phosphorus diet during an experimental period. […] A catheter was indwelled in the right cervical vein 6 to 7 weeks after the birth, and Example 5 was continuously administered for 2 weeks by an osmotic pump (manufactured by Altez). The thoracic (ventral) aorta was harvested, then immobilized with 4% para-formaldehyde PBS, washed, and then stained with alizarin red 0.5% KOH. The tissue was washed, and then preserved in 70% EtOH. For the obtained tissue, the calcification of the alizarin red-positive region of the thoracic aorta was scored (maximum value of 3) under the stereoscopic microscope.
# [7] = tested on: ddY mice; assay: Evaluation of safety, influence on osteogenesis (4-week continuous intravenous administration); assay type: in vivo, mouse; details: 4 weeks
# Protocol: Thus, toxicity, particularly an influence on osteogenesis was examined using Comparative Example 2, as described below.
# Catheters were indwelled in the jugular veins of 6-week-old ddY mice, and Comparative Example 2 was continuously administered at a high dose (1 mg/mouse/day) or low dose (0.1 mg/mouse/day) for 4 weeks using an osmotic pump (manufactured by Alzert). The low dose is 10 or more times as much as an effective drug efficacy concentration. Evaluation items were set to a body weight, the amount of intake of a food and drink, blood biochemistry (including calcium and phosphoric acid), the weights of principal organs, and histopathology. Moreover, bone structures were evaluated by µCT, and bone strengths were evaluated in a three-point bending test.
# [8] = aorta rings, sodium phosphate 3 mM, cultured 10 days
substance,measurement,setting,value
"RDDSSESSDSGSSSESDGD (SEQ ID NO:10) (ASARM peptide) [Comparative Example 1, reference compound]",Calcification inhibitory activity (relative),[1],0
"Ac-SSESSESGSSSESD(C)-NH2 (N-Ac/chloroacetyl thioether cyclised, added C-terminal Cys amide; Phosphopeptide; MOD_RES (9)..(9) PHOSPHORYLATION; MOD_RES (11)..(11) PHOSPHORYLATION; MOD_RES (13)..(13) PHOSPHORYLATION) [Example 5]",Residual rate in mouse serum,[2],inhibited in comparison with Comparative Example 2
same,Calcification inhibitory activity (relative),[1],500-1000<
same,Calcification in leg region (µCT images),[3],no calcification was confirmed
same,Calcium content per protein,"[4]; aorta rings loaded with phosphoric acid (Pi), decalcified with 10% formic acid, compared with Comparative Example 2",less than that in Comparative Example 2
same,Calcification inhibitory effect compared with Comparative Example 2 (alizarin red staining),[4]; [8],superior to that in Comparative Example 2
same,Calcification of thoracic aorta tissue (alizarin red staining),[4]; [8],calcification was inhibited
same,Residual rate in PBS,[5],not decreased
same,"Vascular calcification (calcification score of thoracic aorta, maximum value of 3)",[6],inhibited
"RDDSSESSDSGSSSESDGD (SEQ ID NO:11) (RDDSSESSDSG[pS]S[pS]E[pS]DGD) [Comparative Example 2, reference compound]","Abnormal findings in body weight, intake of food and drink, blood biochemistry, weights of principal organs, histopathology",[7]; 1 mg/mouse/day or 0.1 mg/mouse/day continuous intravenous,Any abnormal findings were not observed
same,"Bone volume (BV), bone mineral content (BMC), bone mineral density (BMD), bone strength (maximum load) versus PBS","[7]; high and low doses, µCT and three-point bending test",no significant differences
same,Calcification inhibitory activity (relative),[1],100
same,Calcification of thoracic aorta tissue (alizarin red staining),[4]; [8],calcification was inhibited
same,Residual rate in PBS,[5],decreased over time
SSESSDSGSSSESD (SEQ ID NO:8) (SSESSDSG[pS]S[pS]E[pS]D) [Example 2],Calcification inhibitory activity (relative),[1],100
SSESSESGSSSESD (SEQ ID NO:9) (SSESSESG[pS]S[pS]E[pS]D) [Example 3],Calcification inhibitory activity (relative),[1],200<
DDSSESSDSGSSSESD (SEQ ID NO:12) (DDSSESSDSG[pS]S[pS]E[pS]D) [Example 1],Calcification inhibitory activity (relative),[1],100
SSESSESGSSSESD (SEQ ID NO:13) (SSESSESGSS[pS]E[pS]D) [Example 4],Calcification inhibitory activity (relative),[1],110<
